In patent US8501955B2, “Acetamide derivatives as glucokinase activators, their process and medicinal application” (Advinus Therapeutics Private Limited, priority 2007, dated 2013):

Columns and labels:
[1] = Kamata et al (2004) Structure 12: 429-438; cited from earlier work
[2] = system: primary rat hepatocytes; assay: Measurement of glycogen synthesis in primary rat hepatocytes; format: cell-based; conditions: 10 mM glucose, fold increase over DMSO control; for fold induction at 10 µM: Rattus norvegicus, Hepatocyte, 3 h, 10 μM compound; for Fold increase in glycogen synthesis at 10 μM compound: 3 hours
Experimental: Primary hepatocytes are collected from male Wistar rats, and tested for viability by trypan blue exclusion. Primary hepatocytes cultures with viability greater than 95% are selected for the glycogen synthesis assay. The cells are seeded in a 48-well plate at a density of 200,000 cells/well in 250 μl Minimal Essential Medium (MEM) containing 10% foetal calf serum (FCS) and 1.7 μM insulin, and incubated for 4 hours at 37° C. to allow attachment. The medium is replaced with fresh MEM containing 10% FCS, 1.7 μM insulin and 10 nM dexamethasone, and the cells are incubated for 16 hours at 37° C. The medium is then replaced with fresh MEM (serum-free) containing 2 μCi/ml of D-[U^14C]-Glucose along with 10 μM of the compound in a final DMSO concentration of 0.1%. The final glucose concentration is brought to 10 mM by the addition of D-Glucose (MEM already contains 5 mM glucose). The cells are incubated for 3 hours at 37° C. The cells are washed twice with 150 mM NaCl, lysed with 0.1 N NaOH, and the lysate precipitated with 8% w/v trichloroacetic acid (TCA) and 1 mg/well unlabeled glycogen as carrier. Cell debris is pelleted by centrifugation, the supernatant is removed, and the glycogen is precipitated with 63% ethanol. After another round of centrifugation, the supernatant is removed, and the pellet containing the precipitated glycogen is dried overnight. De novo synthesized glycogen is estimated in a scintillation counter (MicroBeta Trilux, Perkin Elmer), and expressed as fold increase over DMSO control.
The protocol for the glycogen assay is based on the method described in “Biochem J. 1990 Feb. 15; 266(1): 91-102” with a few minor modifications. The protocol for isolation of primary rat hepatocytes is based on the method described in “Methods in Enzymology, Vol. III. pp 34-50. Ed. by S. P. Colowick and N. O. Kaplan. New York, Academic Press, 1957” with a few minor modifications.
Compounds described in formula (I), in concentration ranges from 1.0 nM to 500 μM, are tested in glycogen synthesis assay described above.

[3] = target: T1, purified human recombinant GK (Homo sapiens, UniProt P35557); assay: Glucokinase activity assay (coupled enzymatic GK/G6PD assay, NADH absorbance at 340 nm); format: biochemical; conditions: for EC50: EC50 of % change in S0.5 of glucokinase for glucose, sigmoidal fit, read-out: EC50 (with respect to % ΔS0.5); for Emax / % Emax (with respect to % ΔS0.5): Emax of % change in S0.5, vehicle S0.5 = 0%, 0 mM glucose = 100%; for Emax: read-out: % Emax (with respect to % ΔS0.5)
T1 sequence (P35557 1-465): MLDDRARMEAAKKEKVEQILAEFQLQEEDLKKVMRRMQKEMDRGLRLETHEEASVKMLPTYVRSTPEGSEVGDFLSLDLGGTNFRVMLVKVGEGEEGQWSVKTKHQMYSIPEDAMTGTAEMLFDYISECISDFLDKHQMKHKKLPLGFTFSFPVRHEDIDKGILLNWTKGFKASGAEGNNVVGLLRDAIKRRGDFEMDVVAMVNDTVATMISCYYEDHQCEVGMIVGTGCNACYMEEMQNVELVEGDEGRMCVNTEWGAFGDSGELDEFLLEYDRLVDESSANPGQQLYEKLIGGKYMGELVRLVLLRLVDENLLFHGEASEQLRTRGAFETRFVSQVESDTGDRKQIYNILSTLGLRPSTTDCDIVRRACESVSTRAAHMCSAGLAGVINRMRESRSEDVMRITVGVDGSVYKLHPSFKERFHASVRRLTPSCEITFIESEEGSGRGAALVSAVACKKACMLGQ
Description: The glucokinase (GK) assay is a coupled enzymatic assay. GK catalyzes the first step of glycolysis, the conversion of glucose to glucose-6-phosphate (G6P) in the presence of ATP. G6P in turn is converted by glucose-6-phosphate dehydrogenase (G6PD) to 6-phosphogluconate, a process that requires NAD, resulting in NADH formation. Since the GK-catalyzed step is the rate-limiting step of this coupled enzymatic process, the rate of accumulation of 6-phosphogluconate and NADH is directly proportional to the rate of glucose phosphorylation by GK. The rate of the GK-catalyzed reaction can therefore be measured by monitoring the increase in NADH absorbance at 340 nm.
The assay is carried out according to the protocol outlined in Hariharan et al (1997), Diabetes 46: 11-16. Briefly, the test compounds are incubated in a reaction mix containing 25 mM HEPES (pH 7.2), 10 mM MgCl2, 100 mM KCl, 5 mM ATP, 2 mM DTT, 0.5 mM NAD, 1 U/ml Leuconostoc mesenteroides G6PD, 0.3 U/ml of purified human recombinant GK, and different concentrations of glucose. Enzymatic activity is calculated from the initial reaction velocity, measured from the change in NADH absorbance as a function of time.
Compounds described in formula (I), in concentration ranges from 1.0 nM to […] are tested in the purified human recombinant glucokinase assay described above.
A compound is considered to be a glucokinase activator if it, in its testable range of concentrations, yields a higher rate of glucose phosphorylation than in its absence at a particular glucose concentration, for example at 5 mM glucose.
Compounds of general formula (I) are tested in the in vitro GK enzymatic assay to monitor dose-dependent effect on glucokinase activation (in kinetic mode), as described above, at various glucose concentrations. The S0.5 of glucokinase for glucose at different concentration of each compound of interest is calculated from the following modified version of the Michaelis-Menten equation, V=Vmax[S]^n/(S0.5^n+[S]^n), where [S] is the glucose concentration and n is the Hill coefficient (taken as 1.7 to account for the sigmoidal kinetics of glucokinase with respect to glucose). The S0.5 is plotted against the log of the compound concentration. The change in the S0.5 of glucokinase (ΔS0.5) for glucose is calculated by subtracting the S0.5 at each concentration of the compound from the S0.5 in the vehicle control. The ΔS0.5 is then normalized to a percent scale, where the S0.5 in the vehicle control is set to 0% and 0 mM glucose is set to 100%. The % ΔS0.5 is then plotted against the log of the compound concentration. The EC50 and Emax of % change in S0.5 is obtained from the sigmoidal fit of the data. Detailed protocol has been described in our copending application no. WO 2008/104994 which is incorporated herein by reference. Characterization data of some representative glucokinase activators of the present disclosure, which are illustrative but not limiting, are given in table 1 below.

EC50 [3] [nM] | Emax [3] [%] | % Emax (with respect to % ΔS0.5) [3] [%] | melting point [°C] | Compound | hypoglycemia in animal efficacy models [1] | fold induction at 10 µM [2] | Fold increase in glycogen synthesis at 10 μM compound [2] [fold]
 |  |  |  | Ro-28-1675 | cause hypoglycemia |  | 
170 | 91 |  |  | O=C(O)c1cccc(Oc2cnc(NC(=O)C(OC3CCOCC3)c3ccc(S(=O)(=O)C4CC4)cc3)s2)c1 (centres unmarked) [Example B92, 3-{2-[2-(4-Cyclopropanesulfonyl-phenyl)-2-(tetrahydro-pyran-4-yloxy)-acetylamino]-thiazol-5-yloxy}-benzoic acid] |  | 7.8 | 
6800 | 90 |  |  | CC(=O)Nc1cccc(OC(C(=O)Nc2nc(CC(=O)O)c(Cl)s2)c2ccc(S(=O)(=O)C3CC3)cc2)c1 (centres unmarked) [Example B20, {2-[2-(3-Acetylaminophenoxy)-2-(4-cyclopropanesulfonylphenyl)acetylamino]-5-chloro-thiazol-4-yl}acetic acid] |  | 6.8 | 
370 | 95 |  |  | O=C(O)Cc1nc(NC(=O)C(Oc2ccc(F)cc2F)c2ccc(S(=O)(=O)C3CCCC3)cc2)sc1Cl (single isomer, unassigned; (-)) [Example E2, (−)-{5-Chloro-2-[2-(4-cyclopentanesulfonyl-phenyl)-2-(2,4-difluorophenoxy)acetyl-amino]thiazol-4-yl}-acetic acid] |  | 8.8 | 
1270 |  | 90 |  | O=C(O)Cc1nc(NC(=O)C(Oc2ccc(F)cc2F)c2ccc(S(=O)(=O)C3CC3)cc2)sc1Cl (single isomer, unassigned; (+)) [Example F1, (+)-{5-Chloro-2-[2-(4-cyclopropanesulfonyl-phenyl)-2-(2,4-difluorophenoxy)acetyl-amino]thiazol-4-yl}-acetic acid] |  |  | 4.5
 |  |  | 72 to 73 | O=C(O)Cc1csc(NC(=O)C(Oc2ccc(F)cc2)c2ccc(S(=O)(=O)C3CC3)cc2)n1 (centres unmarked) [Example B1, {2-[2-(4-Cyclopropanesulfonylphenyl)-2-(4-fluorophenoxy)acetylamino]thiazol-4-yl}acetic acid] |  |  | 
670 |  | 95 |  | O=C(O)Cc1nc(NC(=O)C(Oc2ccc(F)cc2F)c2ccc(S(=O)(=O)C3CCCC3)cc2)sc1Cl (single isomer, unassigned; (+)) [Example F2, (+)-{5-Chloro-2-[2-(4-cyclopentanesulfonyl-phenyl)-2-(2,4-difluorophenoxy)acety-lamino]thiazol-4-yl}acetic acid] |  |  | 7.2
830 | 90 |  |  | O=C(O)Cc1nc(NC(=O)C(Oc2ccc(Cl)cc2)c2ccc(S(=O)(=O)C3CC3)cc2)sc1Cl (centres unmarked) [Example B6, {5-Chloro-2-[2-(4-chlorophenoxy)-2-(4-cyclopropanesulfonylphenyl)-acetylamino]-thiazol-4-yl}acetic acid] |  | 8.6 | 
110 | 95 |  |  | O=C(Nc1nccs1)C(Oc1ccc(F)cc1F)c1ccc(S(=O)(=O)C2CCCC2)cc1 (centres unmarked) [Example A10, 2-(4-Cyclopentanesulfonylphenyl)-2-(2,4-difluorophenoxy)-N-thiazol-2-yl-acetamide] |  | 4.3 | 
1000 | 90 |  |  | O=C(O)Cc1csc(NC(=O)C(Oc2ccc(F)cc2F)c2ccc(S(=O)(=O)C3CCCCC3)cc2)n1 (centres unmarked) [Example B16, {2-[2-(4-Cyclohexanesulfonylphenyl)-2-(2,4-difluorophenoxy)acetylamino]-thiazol-4-yl}acetic acid] |  | 5.5 | 
150 | 94 |  |  | O=C(Nc1nc2cccnc2s1)C(OC1CCOCC1)c1ccc(S(=O)(=O)C2CC2)cc1 (single isomer, unassigned; (-)) [Example H10A, (−)2-(4-Cyclopropanesulfonyl-phenyl)-2-(tetrahydro-pyran-4-yloxy)-N-thiazolo[5,4-b]pyridin-2-yl-acetamide] |  | 4.1 | 
1550 | 95 |  |  | O=C(O)Cc1nc(NC(=O)C(Oc2ccc(F)cc2F)c2ccc(S(=O)(=O)C3CC3)cc2)sc1Cl (single isomer, unassigned; (-)) [Example E1, (−)-{5-Chloro-2-[2-(4-cyclopropanesulfonyl-phenyl)-2-(2,4-difluorophenoxy)acetyl-amino]thiazol-4-yl}acetic acid] |  | 8.1 | 
